Experimental data: US10106501B2, “Nuclear receptor modulators” (AbbVie Inc., priority 2015, dated 2018)

Target: T1, chimeric human RORγ-Gal4 receptor (Homo sapiens, UniProt P51449)
T1 sequence (P51449 269-508 limits assumed): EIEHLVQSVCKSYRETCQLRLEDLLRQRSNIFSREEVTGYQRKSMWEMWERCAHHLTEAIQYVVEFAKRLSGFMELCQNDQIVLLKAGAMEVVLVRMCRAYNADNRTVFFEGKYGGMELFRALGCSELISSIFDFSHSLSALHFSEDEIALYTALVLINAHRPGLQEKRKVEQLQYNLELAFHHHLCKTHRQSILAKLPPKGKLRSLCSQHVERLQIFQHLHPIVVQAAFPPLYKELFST
Experiment: transient transactivation assay (RORγ-Gal4 luciferase reporter)
Format: cell-based
Details: Cos-7 cells transfected with RORγ-Gal4 and 5Gal4 pGL3 TK Luc reporter; overnight incubation; T0901317 at 10^-5 M as reference; read-out: IC50

IC50: 100 to 500 nM
SMILES: Cn1c(Cc2c(Cl)ccc(C(=O)N3CCN(C4CC(C(=O)O)C4)CC3)c2Cl)cc2ccc(C(F)(F)F)cc21 (stereo not shown) [O, 3-(4-(2,4-dichloro-3-((1-methyl-6-(trifluoromethyl)-1H-indol-2-yl)methyl)benzoyl)piperazin-1-yl)cyclobutanecarboxylic acid]
